Reference: PubChem BioAssay (NCI)
“And” between values parts separate entries of the source, which are not always exact repeats. Equal values may be shown once.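 Where inhibition never reached the appropriate level, the endpoint shown equals the highest concentration tested. Otherwise, values were interpolated linearly from a five-concentration, 48-hour dose response in 96-well plates. Abbreviation: GI50, concentration required for 50% inhibition of growth. TGI: total growth inhibition.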

Tests used:
Assay in all cases: growth of human tumour cells (NCI), 48 h
SF-295 CNS = tested on: SF-295 CNS
NCI-H522 lung = tested on: NCI-H522 lung
OVCAR-4 ovarian = tested on: OVCAR-4 ovarian
MDA-MB-231 breast = tested on: MDA-MB-231 breast
SK-OV-3 ovarian = tested on: SK-OV-3 ovarian
SK-MEL-5 melanoma = tested on: SK-MEL-5 melanoma
SR leukemia = tested on: SR leukemia
IGROV1 ovarian = tested on: IGROV1 ovarian
NCI-H23 lung = tested on: NCI-H23 lung
HOP-92 NSCLC = tested on: HOP-92 NSCLC

| Structure (SMILES) | TGI (SF-295 CNS) | TGI (NCI-H522 lung) | TGI (OVCAR-4 ovarian) | TGI (MDA-MB-231 breast) | TGI (SK-OV-3 ovarian) | TGI (SK-MEL-5 melanoma) | TGI (SR leukemia) | TGI (IGROV1 ovarian) | TGI (NCI-H23 lung) | GI50 (NCI-H522 lung) | GI50 (MDA-MB-231 breast) | GI50 (SK-OV-3 ovarian) | GI50 (HOP-92 NSCLC) | TGI (HOP-92 NSCLC) | GI50 (SK-MEL-5 melanoma) | GI50 (SR leukemia) | GI50 (IGROV1 ovarian) | GI50 (NCI-H23 lung) | GI50 (SF-295 CNS) | GI50 (OVCAR-4 ovarian) |
| --- | --- | --- | --- | --- | --- | --- | --- | --- | --- | --- | --- | --- | --- | --- | --- | --- | --- | --- | --- | --- |
| Cc1cc(C)c2nccc(NCCCN(C)C)c2c1[N+](=O)[O-] | > 100 µM | 27.5 µM | 30.2 µM | > 100 µM | > 100 µM | 26.6 µM | > 100 µM | 92.3 µM | 37.2 µM |  |  |  |  |  |  |  |  |  |  |  |
| C/C(=N\O)[C@H]1CC[C@@]2(C)[C@@H]3CC[C@H]4C(C)(C)/C(=N/O)CC[C@@]45CC35CC[C@]12C (stereo partly specified) |  | > 16.7 µM |  | > 16.7 µM | > 16.7 µM | 7.59 µM | > 16.7 µM | > 16.7 µM | > 16.7 µM | > 16.7 µM | 7.46 µM | 6.18 µM | 2.09 µM | 5.45 µM | 1.51 µM | 1.85 µM | 5.28 µM | 4.96 µM |  |  |
| COc1ccccc1-c1nccc(COc2ccccc2C[C@@H](Oc2ncnc3sc(-c4ccc(F)cc4)c(-c4ccc(OCCN5CCN(C)CC5)c(Cl)c4C)c23)C(=O)O)n1 | 3.91 µM |  | 14.6 µM | 3.29 µM | 16.5 µM | 3.12 µM | 0.714 µM | 6.08 µM | 3.84 µM |  | 1.61 µM | 4.04 µM | 1.41 µM | 3.27 µM | 1.71 µM | 0.034 µM | 2.27 µM | 1.11 µM | 1.89 µM | 3.55 µM |
| O=C1Nc2ccc(Br)cc2C1=Nc1ccc(Cl)cc1 | 89.2 µM | 24.6 µM |  | 45.9 µM | > 100 µM | 20.1 µM | > 100 µM |  | > 100 µM |  |  |  |  | > 100 µM |  |  |  |  |  |  |
| Cc1nnc(N=Nc2c(O)[nH]c3ccccc23)[nH]c1=O | > 100 µM | > 100 µM | > 100 µM | > 100 µM | > 100 µM |  | > 100 µM | > 100 µM |  |  |  |  |  | > 100 µM |  |  |  |  |  |  |
| Cc1cc(Nc2cc(N3CCN(C)CC3)nc(C#Cc3ccccc3)n2)n[nH]1 | 16.8 µM |  | 13.3 µM | 16.5 µM | 13.2 µM | 16.5 µM | 20.4 µM | 6.05 µM | 18.5 µM |  | 3.82 µM | 2.16 µM | 0.843 µM | 4.84 µM | 4.32 µM | 3.47 µM | 1.13 µM | 3.25 µM | 3.39 µM | 1.7 µM |
| Cc1ccc(S(=O)c2ccc([N+](=O)[O-])c3nonc23)cc1 (stereo unspecified) |  | 2.98 µM | 9.24 µM | 22.6 µM | 34.3 µM | 28.5 µM | > 100 µM | 27.4 µM | 30.4 µM | 1.57 µM | 10.1 µM | 18.8 µM | 4.09 µM | 17.2 µM | 14.8 µM | 3.39 µM | 12.2 µM | 14.1 µM |  | 3.08 µM |
| COc1ccc(-c2nc(/C=N/Nc3cc(C)nc4ccc(Br)cc34)c(C)o2)cc1 | 3.49 µM | 3.67 µM | 3.31 µM | 3.72 µM | 3.12 µM | 3.18 µM | 1.59 µM | 3.36 µM |  | 1.8 µM | 1.93 µM | 1.7 µM | 1.45 µM | 3.06 µM | 1.78 µM | 0.315 µM | 1.72 µM |  | 1.9 µM | 1.72 µM |
| O=C1c2c(O)ccc(O)c2C(=O)c2c(NCCNCCO)ccc(NCCNCCO)c21 | 0.321 µM and 0.878 µM and 0.526 µM | 0.101 µM and 0.0831 µM and 0.574 µM | 2.08 µM and 0.744 µM and 1.4 µM | 1.45 µM and 2.38 µM and 1.11 µM | 0.228 µM and 0.563 µM and 0.431 µM | 0.689 µM and 0.329 µM and 0.657 µM | 0.102 µM and 0.389 µM and 0.865 µM | 1.41 µM and 3.13 µM and 2.21 µM |  | 0.0232 µM and 0.00969 µM and 0.0544 µM |  |  | 0.0312 µM | 0.773 µM and 0.425 µM and 0.0779 µM |  | < 0.005 µM |  |  |  |  |
| CNc1ccc(N=Nc2cccc3ncccc23)cc1 | > 100 µM | > 100 µM |  | > 100 µM | > 100 µM | > 100 µM | > 88.7 µM | > 100 µM | > 100 µM | 43.7 µM | 7.47 µM | > 73.9 µM | 24.3 µM | > 100 µM | 23 µM | 16.1 µM |  | 17.1 µM | 17.8 µM |  |
| CCCCCCCCCCCCCCCCCCNC(=O)[C@H]1CSC(c2ccc(F)c(OC)c2)N1 (stereo partly specified) | 13.7 µM |  | 3.62 µM | 1.67 µM | 11.2 µM | 1.52 µM | 1.91 µM | 5.05 µM | 5.05 µM |  | 0.842 µM | 1.92 µM | 1.66 µM | 4.61 µM | 0.812 µM | 0.637 µM | 1.43 µM | 1.42 µM | 2.14 µM | 1.38 µM |
| C=C1C(=O)C23CC1CCC2C12CO[C@@]3(O)[C@@H](O)C1C(C)(C)C=CC2=O (stereo partly specified) | 4.79 µM and 32 µM | 4.09 µM |  | 12 µM | 13.7 µM and 54.5 µM | 19.1 µM | 43.6 µM and 16.1 µM |  | 1.42 µM and 7.88 µM |  |  | 26.1 µM | 2.92 µM | 1.46 µM and 5.41 µM |  | 0.721 µM |  | 2.9 µM | 18.1 µM |  |
| CC(=O)Nc1ccc2c(c1)CN1C(=O)c3ccccc3C1=N2 | > 100 µM |  | > 100 µM | > 100 µM | > 100 µM | > 100 µM | > 100 µM | > 100 µM | > 100 µM |  | > 100 µM | > 100 µM | > 100 µM | > 100 µM | > 100 µM | > 100 µM | > 100 µM | > 100 µM | > 100 µM | > 100 µM |
